Results on 73 molecules are retold here after ChEMBL document CHEMBL3507680, “University of Dundee, Gates Library screen for HepG2 cell viability”.

The series is described as follows: Human HepG2 cell viability assay in 384 well format. The class given is toxicity, cell-based. On the set-up: dose 125 nL, time 70.5 hour; concentration not given beside the values. The following applies: HepG2 cells, read-out: Inhibition.
As to `O=C(NC1CCN(C2CC2)CC1)c1cn(-c2ccc(Cl)cc2)nn1`, the cytotoxicity at 70.5 h is -7.11%.
On to `Cc1ccnc(NC(=O)c2ccc(F)c(S(=O)(=O)NC3CC3)c2)c1`, for which the cytotoxicity at 70.5 h is -7.61%.
Turning to `CCOc1ccc(NC(=O)NCCCN(C)S(C)(=O)=O)cc1C`, the cytotoxicity at 70.5 h is -15.1%.
With `NC(=O)CN(Cc1ncc(-c2ccccc2)o1)C1CCCC1`, the cytotoxicity at 70.5 h is -7.44%.
Turning to `O=C(NC1CCN(C2CC2)C1)c1cn(-c2ccc(F)cc2)nn1` (stereo not drawn), the cytotoxicity at 70.5 h is -6.52%.
With `CC(C)(C)c1nc(CC(=O)NCCC(=O)Nc2ccncc2)cs1`, the cytotoxicity at 70.5 h is 5.09%.
On to `CCOc1ccc(NC(=O)NCCS(=O)(=O)CC)cc1C`, for which the cytotoxicity at 70.5 h is -8.96%.
In the case of `O=C(NCc1ccnc(OCC2CC2)c1)C1Cc2ccccc2O1` (stereo not drawn), the cytotoxicity at 70.5 h was -4.48%.
To `O=C(NC1CCCN(Cc2c(F)cccc2F)C1)c1cnccn1` (stereo not drawn) belongs 1.65%; to `COC(=O)c1ccc(N(C(=O)c2cscn2)C(C)C)c(C)c1`, -4.28%; to `CCOc1cc(NC(=O)N2CCOC3(CCC3)C2)ccc1C`, -5.84%.
In the case of `CCOC(=O)N(C)C1CCN(Cc2cnc3ccccn23)CC1`, the cytotoxicity at 70.5 h is -4.79%.
In the case of `CC(Cn1cncn1)NC(=O)Nc1ccc(COC2CCCC2)cc1` (stereo not drawn), the cytotoxicity at 70.5 h is -1.86%.
To `CC(CCO)Nc1cccc(C(F)(F)F)n1` (stereo not drawn) belongs 3.64%; to `CC(C)c1ncc2c(n1)CN(Cc1ccc3c(c1)OCCO3)CC2`, 12.6%.
Consider `CN(C1CCc2ccccc2C1)S(C)(=O)=O` (stereo not drawn), for which the cytotoxicity at 70.5 h amounted to 0.716%.
As for `CC(CO)CSc1ncnc2[nH]ncc12` (stereo not drawn), the cytotoxicity at 70.5 h is -0.794%.
To `CC(C)COc1cncc(NC(CO)c2ccco2)n1` (stereo not drawn) belongs 11.4%.
Regarding `CCOc1ccccc1N(C)C(=O)c1ccc(Cl)cn1`, the cytotoxicity at 70.5 h was 21.8%.
Consider `Cc1nn(C)c(C)c1OCC(=O)NCc1cccc(C(=O)O)c1`, for which the cytotoxicity at 70.5 h is 3.51%.
`CSCC(CCO)Nc1cccc(C(F)(F)F)n1` (stereo not drawn): the cytotoxicity at 70.5 h is -1.51%.
To `CC(C)C(=O)Nc1cc(C(C)(C)C)nn1-c1ccccn1` belongs -3.18%; to `c1cc(CN2CCc3cncnc3C2)c2c(c1)OCCO2`, -6.07%; to `CN(C)C(=O)c1ccccc1NCCCOc1cccc(C#N)c1`, 13.1%.
With `Cc1cncc(NCC(O)c2ccco2)n1` (stereo not drawn), the cytotoxicity at 70.5 h was -9.53%.
With `O=C(Nc1cccnc1)Nc1cccc(CN2CCC(O)CC2)c1`, the cytotoxicity at 70.5 h is 10.2%.
In the case of `C1CC(c2noc(C3CC3)n2)CN(CCOCC2CC2)C1` (stereo not drawn), the cytotoxicity at 70.5 h was found to be 7.19%.
For the molecule `Cc1nc(C)n(CC2CCCCN2CCCN2CCCC2=O)n1` (stereo not drawn), the cytotoxicity at 70.5 h was 33.6%.
Consider `O=C(NCc1ccccc1CN1CCCC1)Nc1cccnc1`, for which the cytotoxicity at 70.5 h is -4.93%.
On to `CC(C)(C)NC(=O)CNC(=O)c1cccnc1Oc1cccnc1`, for which the cytotoxicity at 70.5 h is -6.52%.
`c1coc(-c2nc(CN3CCOC(Cn4cccn4)C3)cs2)c1` (stereo not drawn): the cytotoxicity at 70.5 h is 29.1%.
`O=C(CN1CCOC(Cn2cccn2)C1)NC1CCN(C2CC2)CC1` (stereo not drawn): the cytotoxicity at 70.5 h was -6.52%.
Turning to `COc1cc(C)nc(N2CCN(C(=O)CCc3cccs3)CC2)n1`, the cytotoxicity at 70.5 h was -6.26%.
For the molecule `Cc1ccc(C(=O)NCc2ccc(N3CCNC(=O)C3)c(F)c2)cc1`, the cytotoxicity at 70.5 h was -0.234%.
`Cc1nc(C(=O)NCc2ccc(N3CCNC(=O)C3)c(F)c2)cs1`: the cytotoxicity at 70.5 h is -5.54%.
As for `O=C1CN(c2ccc(CNC(=O)c3cccnc3O)cc2F)CCN1`, the cytotoxicity at 70.5 h was -2.79%.
The figure for `COc1ncccc1CNC(=O)N(Cc1ccccc1F)C1CC1` is -0.0541%; for `CN(C)c1ncccc1CNC(=O)N(Cc1ccccc1F)C1CC1` it is -4.47%.
The figure for `O=C(NCc1ccncc1)N(Cc1ccc(F)cc1F)C1CC1` is -5.41%; for `O=C(NCc1ccccc1CN1CCC(O)CC1)Nc1ccccc1` it is -0.116%.
As for `CC(c1ccc(Cl)cc1)N1CCN(CCCS(C)(=O)=O)CC1` (stereo not drawn), the cytotoxicity at 70.5 h stood at 1.48%.
The figure for `CC(c1ccc(Cl)cc1)N1CCN(CCS(N)(=O)=O)CC1` (stereo not drawn) is -0.779%.
For `CC(c1ccc(C(F)(F)F)cc1)N1CCN(CCS(C)(=O)=O)CC1` (stereo not drawn), the cytotoxicity at 70.5 h is -1.96%.
Regarding `O=C1CN(c2ccc(CNC(=O)c3ccc[nH]3)cc2F)CCN1`, the cytotoxicity at 70.5 h turned out to be 1.47%.
For `CCN(CC1CCCO1)C(=O)Nc1cccc(N2CCOCC2)c1` (stereo not drawn), the cytotoxicity at 70.5 h worked out at 0.519%.
As to `COC(C)c1nc(CN2CCCNCC2)cs1` (stereo not drawn), the cytotoxicity at 70.5 h is -3.19%.
For `Cc1cccc(-c2noc(CN3CCC(c4ccn[nH]4)CC3)n2)c1`, the cytotoxicity at 70.5 h was -1.2%.
On to `COCCn1cc(C(=O)N2CCCC2c2cccc(C)c2)ccc1=O` (stereo not drawn), for which the cytotoxicity at 70.5 h was -4.94%.
As to `c1cc(C2CCN(Cc3nc(C4CC4)no3)CC2)[nH]n1`, the cytotoxicity at 70.5 h was -6.11%.
For the molecule `CCN(C)S(=O)(=O)N1CCCC1CC(=O)c1cccs1` (stereo not drawn), the cytotoxicity at 70.5 h worked out at 32.3%.
On to `CCN(CC)S(=O)(=O)N1CCCC1CC(=O)c1cccs1` (stereo not drawn), for which the cytotoxicity at 70.5 h is -4.6%.
To `COCc1noc(C2(c3ccc(F)cc3)CC2)n1` belongs 12.6%; to `CC(C)(C)c1nnc(CNc2cc(F)ccc2OCC2CCCO2)o1` (stereo not drawn), 32.8%.
Turning to `CCC(CNC(=O)c1ccccc1OC)N1CCc2ccccc2C1` (stereo not drawn), the cytotoxicity at 70.5 h amounted to 7.61%.
On to `CCC(CNC(=O)c1ccccc1Br)N1CCc2ccccc2C1` (stereo not drawn), for which the cytotoxicity at 70.5 h was -9.67%.
As to `Cc1csc(CNC(=O)NCC(O)c2ccc(F)cc2)n1` (stereo not drawn), the cytotoxicity at 70.5 h was -12.5%.
To `CCC(CNC(=O)c1ccco1)N1CCc2ccccc2C1` (stereo not drawn) belongs -12.8%; to `O=C(NCC1(N2CCOCC2)CCSC1)Nc1ccccn1` (stereo not drawn), -9.14%.
On to `Cc1ccc(CN(C(=O)NCc2nnc3n2CCCCC3)C2CC2)o1`, for which the cytotoxicity at 70.5 h was -10.9%.
With `O=C(NCc1nnc2n1CCC2)N(Cc1ccc(F)cc1)C1CC1`, the cytotoxicity at 70.5 h was -8.55%.
As for `CC(C)CCCC(C)NC(=O)c1ccc(OCC(N)=O)cc1` (stereo not drawn), the cytotoxicity at 70.5 h is -6.3%.
As for `O=C(CN1C(=O)c2ccccc2CS1(=O)=O)c1ccc(Cl)cc1`, the cytotoxicity at 70.5 h worked out at 7.63%.
With `O=C(NCc1nnc2n1CCCCC2)N(Cc1ccccn1)C1CC1`, the cytotoxicity at 70.5 h amounted to 0.752%.
On to `COC(=O)c1cccc(S(=O)(=O)N2CSCC2C(=O)N(C)C2CC2)c1` (stereo not drawn), for which the cytotoxicity at 70.5 h stood at 12.1%.
Consider `CC(=O)c1cccc(OCCCC(=O)N(C)Cc2cnc(C)s2)c1`, for which the cytotoxicity at 70.5 h is -6.22%.
As to `O=C(NCc1ccc(F)cc1)NCC1(N2CCOCC2)CCSC1` (stereo not drawn), the cytotoxicity at 70.5 h turned out to be 7.3%.
As to `COCc1noc(C2(c3ccc(Cl)cc3)CCOCC2)n1`, the cytotoxicity at 70.5 h is -6.8%.
Turning to `C=C(C)CN1CCC(NC(=O)Nc2cc(C(N)=O)ccc2OC)CC1`, the cytotoxicity at 70.5 h was -2.27%.
Regarding `C=C(C)CN1CCC(NC(=O)NCCc2cccc(C(N)=O)c2)CC1`, the cytotoxicity at 70.5 h is -3.95%.
For the molecule `CC(=O)c1cccc(OCCCC(=O)N(C)Cc2cscn2)c1`, the cytotoxicity at 70.5 h was determined as 7.32%.
As to `CCNC(=O)CCC(=O)NC1(c2cccc(Br)c2)CC1`, the cytotoxicity at 70.5 h is -2.97%.
Consider `Cc1ncccc1C(=O)NCc1ccccc1CN(C)Cc1ccco1`, for which the cytotoxicity at 70.5 h was -1.05%.
In the case of `Cc1ccsc1C(=O)Nc1ccc(N2CCC(O)CC2)c(C#N)c1`, the cytotoxicity at 70.5 h is -0.649%.
